Results published in ChEMBL document CHEMBL3885861, “Open TG-GATES”.

Organism: Rattus norvegicus
Test: Open TG-GATES - Regimen: Single
Type: toxicity, organism-based, Sprague-Dawley
Set-up: regimen Single, gender Male, age 6 weeks
Settings: in vivo, po, 1000 mg/kg, route gavage, dose level High; for APTT / Bas / Eos / Fbg / Hb / Ht / Lym / MCH / MCHC / MCV / Mono / Neu / PT / Plat / RBC / Ret / WBC: tissue Blood; for KIDNEY_L / KIDNEY_R / KIDNEY_TOTAL: tissue Kidney; for LIVER: tissue Liver; for A/G / ALP / ALT / AST / BUN / CRE / Ca / Cl / DBIL / GLC / IP / K / LDH / Na / PL / RALB / TBIL / TC / TG / TP / gamma-GTP: tissue Plasma

## CN(C)[C@@H]1C(O)=C(C(N)=O)C(=O)[C@@]2(O)C(O)=C3C(=O)c4c(O)cccc4[C@@](C)(O)[C@H]3C[C@@H]12 [TETRACYCLINE]
3 h
  TERMINAL_BW: 185.9 g
  APTT: 15.7 s
  Bas: 0%
  Eos: 0.4%
  Fbg: 217.2 mg/dL
  Hb: 13.5 g/dL
  Ht: 40.5%
  Lym: 79.8%
  MCH: 22.1 pg
  MCHC: 33.3%
  MCV: 66.4 fL
  Mono: 6.4%
  Neu: 13.2%
  PT: 11.9 s
  Plat: 103.4 x10_4/uL
  RBC: 610 x10_4/ul
  Ret: 9.5%
  WBC: 108.1 x10_2/uL
  KIDNEY_L: 0.8 g
  KIDNEY_R: 0.8 g
  KIDNEY_TOTAL: 1.7 g
  LIVER: 8.5 g
  A/G: 2.2
  ALP: 770.2 IU/L
  ALT: 44 IU/L
  AST: 72.8 IU/L
  BUN: 15.6 mg/dL
  CRE: 0.5 mg/dL
  Ca: 11.1 mg/dL
  Cl: 105.8 meq/L
  DBIL: 0.03 mg/dL
  GLC: 184.8 mg/dL
  IP: 12 mg/dL
  K: 5 meq/L
  LDH: 142.4 IU/L
  Na: 138 meq/L
  PL: 132 mg/dL
  RALB: 3.8 g/dL
  TBIL: 0.6 mg/dL
  TC: 77.8 mg/dL
  TG: 36.8 mg/dL
  TP: 5.6 g/dL
  gamma-GTP: 1.8 IU/L
6 h
  TERMINAL_BW: 184.3 g
  APTT: 17.2 s
  Bas: 0%
  Eos: 0.4%
  Fbg: 193 mg/dL
  Hb: 13.4 g/dL
  Ht: 40.4%
  Lym: 79%
  MCH: 21.9 pg
  MCHC: 33.1%
  MCV: 66.1 fL
  Mono: 7.2%
  Neu: 13.4%
  PT: 12.2 s
  Plat: 101.1 x10_4/uL
  RBC: 612.4 x10_4/ul
  Ret: 10.1%
  WBC: 100.4 x10_2/uL
  KIDNEY_L: 0.9 g
  KIDNEY_R: 0.9 g
  KIDNEY_TOTAL: 1.8 g
  LIVER: 8.1 g
  A/G: 1.8
  ALP: 872.8 IU/L
  ALT: 39 IU/L
  AST: 74.2 IU/L
  BUN: 13.4 mg/dL
  CRE: 0.4 mg/dL
  Ca: 10.9 mg/dL
  Cl: 106.4 meq/L
  DBIL: 0.018 mg/dL
  GLC: 186.6 mg/dL
  IP: 11.9 mg/dL
  K: 5.4 meq/L
  LDH: 128.4 IU/L
  Na: 137.4 meq/L
  PL: 127 mg/dL
  RALB: 3.4 g/dL
  TBIL: 0.4 mg/dL
  TC: 71.2 mg/dL
  TG: 36.2 mg/dL
  TP: 5.2 g/dL
  gamma-GTP: 1.6 IU/L
9 h
  TERMINAL_BW: 180.6 g
  APTT: 16.8 s
  Bas: 0%
  Eos: 0.2%
  Fbg: 199.2 mg/dL
  Hb: 13.1 g/dL
  Ht: 40%
  Lym: 83.4%
  MCH: 21.5 pg
  MCHC: 32.8%
  MCV: 65.4 fL
  Mono: 5.8%
  Neu: 11%
  PT: 12.3 s
  Plat: 104 x10_4/uL
  RBC: 610.6 x10_4/ul
  Ret: 8.9%
  WBC: 66.5 x10_2/uL
  KIDNEY_L: 0.8 g
  KIDNEY_R: 0.8 g
  KIDNEY_TOTAL: 1.6 g
  LIVER: 7.7 g
  A/G: 2.2
  ALP: 769.6 IU/L
  ALT: 33.8 IU/L
  AST: 66.4 IU/L
  BUN: 12.8 mg/dL
  CRE: 0.4 mg/dL
  Ca: 11 mg/dL
  Cl: 107.4 meq/L
  DBIL: 0.044 mg/dL
  GLC: 192.4 mg/dL
  IP: 11.5 mg/dL
  K: 4.9 meq/L
  LDH: 136.2 IU/L
  Na: 139.8 meq/L
  PL: 128.8 mg/dL
  RALB: 3.7 g/dL
  TBIL: 0.4 mg/dL
  TC: 69.4 mg/dL
  TG: 25.6 mg/dL
  TP: 5.4 g/dL
  gamma-GTP: 1.2 IU/L
24 h
  TERMINAL_BW: 200.2 g
  APTT: 16.8 s
  Bas: 0%
  Eos: 0.6%
  Fbg: 208.8 mg/dL
  Hb: 13.4 g/dL
  Ht: 40.5%
  Lym: 84.2%
  MCH: 21.5 pg
  MCHC: 33%
  MCV: 65.1 fL
  Mono: 7%
  Neu: 8.2%
  PT: 11.9 s
  Plat: 105 x10_4/uL
  RBC: 621.8 x10_4/ul
  Ret: 8.9%
  WBC: 88.7 x10_2/uL
  KIDNEY_L: 0.9 g
  KIDNEY_R: 0.9 g
  KIDNEY_TOTAL: 1.9 g
  LIVER: 8.9 g
  A/G: 2.2
  ALP: 948 IU/L
  ALT: 44 IU/L
  AST: 77.2 IU/L
  BUN: 17.8 mg/dL
  CRE: 0.5 mg/dL
  Ca: 11.2 mg/dL
  Cl: 105.6 meq/L
  DBIL: 0.006 mg/dL
  GLC: 180.4 mg/dL
  IP: 9.8 mg/dL
  K: 5 meq/L
  LDH: 147 IU/L
  Na: 141.6 meq/L
  PL: 142.6 mg/dL
  RALB: 3.8 g/dL
  TBIL: 0.3 mg/dL
  TC: 74 mg/dL
  TG: 50.2 mg/dL
  TP: 5.6 g/dL
  gamma-GTP: 1 IU/L
